Usually IC50 stands for the concentration that inhibits the measured activity by half. Low values mean greater potency in that assay, high ones weaker potency in that assay.

In this test the target is T1, Wee1 (Homo sapiens, UniProt P30291).
T1 construct: endogenous in cells; host or cells: HeLa
T1 sequence (P30291 whole entry): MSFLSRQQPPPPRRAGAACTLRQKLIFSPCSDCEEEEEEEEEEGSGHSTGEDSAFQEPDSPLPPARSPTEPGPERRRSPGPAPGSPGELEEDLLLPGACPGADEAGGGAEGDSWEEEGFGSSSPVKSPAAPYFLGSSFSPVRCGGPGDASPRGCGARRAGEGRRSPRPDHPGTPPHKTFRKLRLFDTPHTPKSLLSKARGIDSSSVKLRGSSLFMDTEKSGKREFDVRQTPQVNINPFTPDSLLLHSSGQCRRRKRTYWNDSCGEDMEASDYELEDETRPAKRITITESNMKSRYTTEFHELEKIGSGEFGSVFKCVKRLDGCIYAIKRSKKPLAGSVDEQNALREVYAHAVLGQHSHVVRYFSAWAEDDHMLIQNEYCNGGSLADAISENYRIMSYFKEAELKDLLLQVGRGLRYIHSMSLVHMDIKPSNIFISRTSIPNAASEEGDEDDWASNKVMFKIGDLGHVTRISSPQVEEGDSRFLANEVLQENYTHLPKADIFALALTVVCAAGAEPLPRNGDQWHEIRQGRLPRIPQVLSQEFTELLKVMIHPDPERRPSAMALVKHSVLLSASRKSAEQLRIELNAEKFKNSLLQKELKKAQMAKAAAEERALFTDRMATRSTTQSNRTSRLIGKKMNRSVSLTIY
In words: Cell assay for Wee1 inhibitory activity (cell-based ELISA, phospho-cdc2(Tyr15)). The conditions noted are these: Hela cells synchronized using aphidicolin; phosphorylation level of cdc2 (Tyr15) by sandwich ELISA. The source says: Cell Assay for Wee1 Inhibitory Activity
Wee1 inhibitory activity can be measured using a cell-based ELISA assay. Hela cells are synchronized using aphidicolin, which blocks the entry of cells into S-phase. Cells in G2-M transition phase are then obtained by releasing the cells from aphidicolin treatment for approximately 7-9 hrs. The phosphorylation level of the Wee1 target cdc2 may then be measured by sandwich ELISA using an anti-cdc2 antibody and an anti-phospho-cdc2(Tyr15) antibody. This cell assay was used to calculate a pIC50 for the compounds described in Examples 2, 3, and 19.
Compound `CCN(CC)CCOc1ccc(Nc2ncc(Br)c(Nc3ccccc3OC)n2)cc1` [Example 2, 5-bromo-N^2-(4-{[2-(diethylamino)ethyl]oxy}phenyl)-N^4-[2-(methyloxy)phenyl]-2,4-pyrimidinediamine] gave an IC50 of at most 10 µM. Consider `CCC(C)NC(=O)c1ccccc1Nc1nc(Nc2cccc(CCN3CCOCC3)c2)ncc1Br` (stereo not drawn) [Example 3, 2-{[5-bromo-2-({3-[2-(4-morpholinyl)ethyl]phenyl}amino)-4-pyrimidinyl]amino}-N-(1-methylpropyl)benzamide], for which the IC50 was at most 10 µM. In the case of `COc1ccccc1Nc1nc(Nc2cccc(OCCN(C)C)c2)ncc1Br` [Example 19, 5-bromo-N^2-(3-{[2-(dimethylamino)ethyl]oxy}phenyl)-N^4-[2-(methyloxy)phenyl]-2,4-pyrimidinediamine] it was at most 10 µM.

For the origin of these results see patent US20100105674A1, “Chemical Compounds” (priority 2007, published 2010).
